Here are results for five molecules from ChEMBL document CHEMBL3045168, “Thiamethoxam acts as a target-site synergist of spinosad in resistant strains of Frankliniella occidentalis” (2013).

The subject of assay [1] is Frankliniella occidentalis. The assay is described as follows: Insecticidal activity against Frankliniella occidentalis TFA (western flower thrips) in compound treated sweet pepper leaf assessed as mortality at 216 mg/l at 25 +/- 2 degC by leaf dip method. The class given is functional. The following applies: in Capsicum annuum, foliar.
Assay [2] has as its system Frankliniella occidentalis. The assay is described as follows: Insecticidal activity against Frankliniella occidentalis SPI5 (western flower thrips) in compound treated sweet pepper leaf assessed as mortality at 216 mg/l at 25 +/- 2 degC by leaf dip method. The following applies: SPI5, in Capsicum annuum, foliar. In kind it is functional.
The test system of assay [3] is Frankliniella occidentalis. The assay is described as follows: Insecticidal activity against Frankliniella occidentalis R1 (western flower thrips) in compound treated sweet pepper leaf assessed as mortality at 216 mg/l at 25 +/- 2 degC by leaf dip method. In kind it is functional. Particulars: R1, in Capsicum annuum, foliar.
Assay [4] relates to Frankliniella occidentalis. The assay is described as follows: Insecticidal activity against Frankliniella occidentalis TFB (western flower thrips) in compound treated sweet pepper leaf assessed as mortality at 216 mg/l at 25 +/- 2 degC by leaf dip method. In kind it is functional. Particulars: in Capsicum annuum, foliar.
The test system of assay [5] is Frankliniella occidentalis. The assay is described as follows: Insecticidal activity against Frankliniella occidentalis SPI5 (western flower thrips) in compound treated sweet pepper leaf assessed as mortality at 150 mg/l at 25 +/- 2 degC by leaf dip method. The class given is functional. The following applies: SPI5, in Capsicum annuum, foliar.
Assay [6] deals with Frankliniella occidentalis. The assay is described as follows: Insecticidal activity against Frankliniella occidentalis TFA (western flower thrips) in compound treated sweet pepper leaf assessed as mortality at 150 mg/l at 25 +/- 2 degC by leaf dip method. In kind it is functional. The following applies: in Capsicum annuum, foliar.
Assay [7] deals with Frankliniella occidentalis. The assay is described as follows: Insecticidal activity against Frankliniella occidentalis R1 (western flower thrips) in compound treated sweet pepper leaf assessed as mortality at 150 mg/l at 25 +/- 2 degC by leaf dip method. The class given is functional. Particulars: R1, in Capsicum annuum, foliar.
Assay [8] relates to Frankliniella occidentalis. The assay is described as follows: Insecticidal activity against Frankliniella occidentalis TFB (western flower thrips) in compound treated sweet pepper leaf assessed as mortality at 150 mg/l at 25 +/- 2 degC by leaf dip method. In kind it is functional. The following applies: in Capsicum annuum, foliar.
The test system of assay [9] is Frankliniella occidentalis. The assay is described as follows: Insecticidal activity against Frankliniella occidentalis TFB (western flower thrips) in compound treated sweet pepper leaf assessed as mortality at 25 +/- 2 degC by leaf dip method. The class given is functional. Particulars: in Capsicum annuum, foliar.
Assay [10] has as its system Frankliniella occidentalis. The assay is described as follows: Resistance factor, LC50 for Frankliniella occidentalis PPP (western flower thrips) to LC50 for Frankliniella occidentalis TFR. The class given is functional.
Assay [11] has as its system Frankliniella occidentalis. The assay is described as follows: Insecticidal activity against Frankliniella occidentalis PPP (western flower thrips) in compound treated sweet pepper leaf assessed as mortality at 25 +/- 2 degC by leaf dip method. The following applies: in Capsicum annuum, foliar. The class given is functional.
In assay [12] the test system is Frankliniella occidentalis. The assay is described as follows: Insecticidal activity against Frankliniella occidentalis R1S (western flower thrips) in compound treated sweet pepper leaf assessed as mortality at 25 +/- 2 degC by leaf dip method. Particulars: in Capsicum annuum, foliar. The class given is functional.
Assay [13] concerns Frankliniella occidentalis. The assay is described as follows: Resistance factor, LC50 for Frankliniella occidentalis R1S (western flower thrips) to LC50 for Frankliniella occidentalis TFR. In kind it is functional.
Assay [14] deals with Frankliniella occidentalis. The assay is described as follows: Insecticidal activity against Frankliniella occidentalis R1S (western flower thrips) in compound treated sweet pepper leaf assessed as mortality at 1000 mg/l at 25 +/- 2 degC by leaf dip method. Particulars: in Capsicum annuum, foliar.
Assay [15] concerns Frankliniella occidentalis. The assay is described as follows: Insecticidal activity against Frankliniella occidentalis TFA (western flower thrips) in compound treated sweet pepper leaf assessed as mortality at 50 mg/l at 25 +/- 2 degC by leaf dip method. In kind it is functional. The following applies: in Capsicum annuum, foliar.
Assay [16] deals with Frankliniella occidentalis. The assay is described as follows: Insecticidal activity against Frankliniella occidentalis TF (western flower thrips) in compound treated sweet pepper leaf assessed as mortality at 25 +/- 2 degC by leaf dip method. The class given is functional. The following applies: in Capsicum annuum, foliar.
Assay [17] concerns Frankliniella occidentalis. The assay is described as follows: Insecticidal activity against Frankliniella occidentalis SPI5 (western flower thrips) in compound treated sweet pepper leaf assessed as mortality at 50 mg/l at 25 +/- 2 degC by leaf dip method. The class given is functional. The following applies: SPI5, in Capsicum annuum, foliar.
For assay [18], the system named is Frankliniella occidentalis. The assay is described as follows: Resistance factor, LC50 for Frankliniella occidentalis MOJO (western flower thrips) to LC50 for Frankliniella occidentalis TF. The class given is functional.
The subject of assay [19] is Frankliniella occidentalis. The assay is described as follows: Insecticidal activity against Frankliniella occidentalis R1 (western flower thrips) in compound treated sweet pepper leaf assessed as mortality at 50 mg/l at 25 +/- 2 degC by leaf dip method. The following applies: R1, in Capsicum annuum, foliar. The class given is functional.
Assay [20] has as its system Frankliniella occidentalis. The assay is described as follows: Insecticidal activity against Frankliniella occidentalis MOJO (western flower thrips) in compound treated sweet pepper leaf assessed as mortality at 25 +/- 2 degC by leaf dip method. The following applies: in Capsicum annuum, foliar. The class given is functional.
The subject of assay [21] is Frankliniella occidentalis. The assay is described as follows: Insecticidal activity against Frankliniella occidentalis TFB (western flower thrips) in compound treated sweet pepper leaf assessed as mortality at 50 mg/l at 25 +/- 2 degC by leaf dip method. The class given is functional. Particulars: in Capsicum annuum, foliar.
The subject of assay [22] is Frankliniella occidentalis. The assay is described as follows: Resistance factor, LC50 for Frankliniella occidentalis R1S (western flower thrips) to LC50 for Frankliniella occidentalis TF. The class given is functional.
Assay [23] relates to Frankliniella occidentalis. The assay is described as follows: Insecticidal activity against Frankliniella occidentalis R1S (western flower thrips) in compound treated sweet pepper leaf assessed as mortality at 50 mg/l at 25 +/- 2 degC by leaf dip method. In kind it is functional. Particulars: in Capsicum annuum, foliar.

By mortality is commonly meant the share of the test organisms that died. A word on the LC50: it is the concentration lethal to half of the exposed cells or organisms.

Converted amounts (≈) assume the structure as drawn.

For the molecule `N#C/N=C1\SCCN1Cc1ccc(Cl)nc1` [THIACLOPRID], the mortality at 216 µg/mL was found to be 3.3% in [1], 3.3% in [2], 0% in assay [3] and 10% in [4].

For `O=[N+]([O-])/N=C1\NCCN1Cc1ccc(Cl)nc1` [IMIDACLOPRID], the mortality at 150 µg/mL in assay [5] stood at 0%; in assay [6], 6.7%; in [7] it was 10%; in assay [8] it was 3.3%.

Consider `C/C(=N\C#N)N(C)Cc1ccc(Cl)nc1` [ACETAMIPRID], for which the LC50 in assay [9] was 663 µg/mL (≈ 2980 µM); in [11], 116 µg/mL (≈ 521 µM); in assay [12], 119 µg/mL (≈ 534 µM). For the same molecule, the RatioLC50 in assay [10] and in assay [13] was 0.2 throughout.

As for `CCCCOCCOCCOCc1cc2c(cc1CCC)OCO2` [PIPERONYL BUTOXIDE], the mortality at 1000 µg/mL in assay [14] came to 10%.

Turning to `CN1COCN(Cc2cnc(Cl)s2)/C1=N\[N+](=O)[O-]` [THIAMETHOXAM], the LC50 in assay [9] is 352 µg/mL (≈ 1210 µM); in assay [16] it was 158 µg/mL (≈ 541 µM); in assay [20] it was 209 µg/mL (≈ 717 µM); in assay [11] it was 1670 µg/mL (≈ 5740 µM); in assay [12] it was 298 µg/mL (≈ 1020 µM). Further, the mortality at 50 µg/mL stood at 10% in assay [15]; 13.3% in assay [17]; 16.7% in [19]; 20% in assay [21]; 0% in assay [23]. In addition, the RatioLC50 is recorded as 4.8 in [10], 1 in [18], 3 in assay [22] and 0.8 in assay [13].
